Work on Cc1cn(-c2ccc(N)c(C)c2)c(C)n1 yielded a melting point of 92 to 96 °C. Work on CCOP(=O)(OCC)Oc1cc2c(c3ccccc13)Nc1ccccc1S2 yielded a melting point of 162 to 163 °C. With CC(NC(=O)c1cc(Cl)cc(Br)c1NC(=O)c1cc(Br)nn1-c1ncccc1Cl)C1CC1 (centres undefined) the melting point was 244 to 247 °C. Work on CN1C(=O)C(c2ccc(OCCF)cc2)(c2ccc(F)c(-c3cccnc3F)c2)N=C1N (centres undefined) yielded a melting point of 135 °C. With CCc1cc2c(s1)-n1c(CCNC(=O)c3cc4ccccc4[nH]3)nnc1CN=C2c1ccccc1Cl the melting point was 174 to 178 °C. In the case of OC(c1ccncc1)c1c[nH]c(-c2ccc(F)cc2)c1-c1ccncc1 (single isomer, unassigned; (+)), the melting point is reported as 202 to 205 °C. CC(C)CCN1CCC2(CC1)CSC1=C(O2)c2ccccc2C(=O)C1=O showed a melting point of 143 to 146 °C. Work on O=C(O)C1(Cn2cnnn2)CCCC1 yielded a melting point of 192 to 196 °C. COC(=O)COCCOc1ccc([N+](=O)[O-])cc1 gave a melting point of 96 to 97.8 °C. With CCCc1c(OCCCCCC(=O)c2ccc3cc(O)c(O)cc3c2)ccc(C(=O)O)c1O the melting point was 205 to 207 °C. In the case of CN1CCC(c2cccc3ccc(C(=O)NCCCc4ccccc4)cc23)CC1, the melting point is reported as 47 to 50 °C. O=C(Nc1ccc(Cl)cc1)NS(=O)(=O)c1ccc2c(c1)OCCO2 gave a melting point of 191 °C. With CCCCCCOc1ccc2cc(OCCCCCC)ccc2c1 the melting point was 78 to 79 °C. Compound CCCCS(=O)(=O)Nc1ccc(Oc2cccc3cccnc23)cc1 has a melting point of 162 °C. Compound Cc1cccc2ncc(C(=O)N3CCCC3)c(=O)n12 has a melting point of 132 to 134 °C. CCOC(=O)CCc1c(O)ccc2ccc(OCC(=O)OCC)cc12 gave a melting point of 112 to 113 °C. Compound CSC(=NCCSCc1ncccc1O)NC#N has a melting point of 192 to 194 °C. O=C(CC1CCC1)N[C@H]1CC[C@H](CCN2CCN(c3nccc4c3OCC4)CC2)CC1 showed a melting point of 148 °C. In the case of CCc1nn(CC(=N)NO)c(CC)c1Oc1cc(Cl)cc(Cl)c1, the melting point is reported as 128 to 130 °C. CCOC(=O)c1c(N)cc([N+](=O)[O-])cc1CC gave a melting point of 68 to 70 °C. In the case of C=CCN(CC=C)c1nc(N(CC=C)CC=C)nc(N2CCN(C(=O)n3ccnc3)CC2)n1, the melting point is reported as 94 to 95 °C. CS(=O)(=O)c1ccc(-n2nc(C(F)(F)F)cc2-c2ccc(-c3cncs3)cc2)cc1 showed a melting point of 169 to 170 °C. In the case of COCCNc1sc(-c2cc[nH]n2)c2c1C(=O)CC(C)(C)C2, the melting point is reported as 171 to 173 °C. Work on COc1cc(Nc2nc3cccc(-c4ccc(C#N)cc4)c3o2)cc(OC)c1OC yielded a melting point of 222 to 223 °C. Work on CC(C)NC(=O)Nc1ccnc(Br)c1 yielded a melting point of 136 to 138 °C. Compound COc1ccc(-c2nnc(N)nc2-c2ccc(OC)cc2)cc1 has a melting point of 179 to 181 °C. In the case of COCc1cc2c(c3c1[nH]c1ccc(O)cc13)C(=O)N(CCN(C)C)C2=O, the melting point is reported as 235 to 237 °C. COc1ccc(-c2cc(C(=O)O)c(=O)n(CC3CC3)n2)cc1F showed a melting point of 169 to 171 °C. Work on COC(=O)c1ccc(OC)c(C=C2COc3ccc(OCc4ccccc4)cc3C2=O)c1 yielded a melting point of 167 to 169 °C. In the case of N#Cc1ccsc1S(N)(=O)=O, the melting point is reported as 152 to 155 °C. Cc1cc(C(F)(F)F)nn1CC(=O)N1CCC(c2nc(NC(=O)C3CCCc4ccccc43)cs2)CC1 (centres undefined) showed a melting point of 179 to 181 °C. Work on CC(C)(C)c1cc(C2(C)NC(=O)NC2=O)cc(C(C)(C)C)c1O (centres undefined) yielded a melting point of 260 °C. With COc1cc2c3c(c1)c(=O)c(Cc1cccnc1)cn3-c1cc(Br)ccc1O2 the melting point was 49.7 to 50.9 °C. CC(C(=O)O)c1ccc2c(c1)C(=O)Cc1cc([N+](=O)[O-])ccc1S2 (centres undefined) showed a melting point of 210 to 211 °C. Work on CC(Cl)OC(=O)C=Cc1cc(N=C=O)ccc1Cl (centres undefined) yielded a melting point of 48 to 50 °C. O=C(O)c1ccc(C2=NCCO2)nc1 showed a melting point of 286 to 287 °C. Compound COc1ccc(C=CC(=O)N2CCc3c([nH]c4ccccc34)C2c2ccc3c(c2)OCO3)cc1O (centres undefined) has a melting point of 213 °C. CCCN1CC(C)=C(C)C2=C1N1CN(OC)C=C1C=N2 gave a melting point of 91 to 92.5 °C. Work on CC(=O)N1CCC(=O)NCc2ccccc21 yielded a melting point of 236 to 239 °C. Work on COc1ccc2c(c1)CCC1C3CC4OCCOC4C3(C)CCC21C (centres undefined) yielded a melting point of 115 °C. For CCCCC(=O)/C=C/c1ccccc1, the melting point was 32 to 32.5 °C. Cc1cc(C(=N)NO)ccc1-c1ccc(-c2nc3cc(C(=N)NO)ccc3[nH]2)cc1 gave a melting point of 300 to 302 °C. Cc1cnc(CO)cc1C(c1cc(F)ccc1F)S(=O)(=O)c1ccc(Cl)cc1 (centres undefined) showed a melting point of 196 to 198 °C. Compound CC1(C(=O)N2C[C@@H](O)C[C@H]2C(=O)NC2(C#N)CC2)CC1 has a melting point of 160 °C. For Cc1ccccc1-c1c(NC(=O)C=Cc2ccc(O)c(O)c2)c(=O)oc2cc3c(cc12)CCC3, the melting point was 295 to 297 °C. CCOC1Nc2c(ccc(OC)c2OC(C)=O)C(=O)N2CCCC12 (centres undefined) gave a melting point of 143 to 146 °C. In the case of CCOC(=O)c1nc2ccc(I)cc2[nH]1, the melting point is reported as 166 to 168 °C. CCCCCCCCCCOCCCCCCCSCCCO gave a melting point of 28 to 32 °C. In the case of CCOCc1cc2c(N=C=S)cccc2cn1, the melting point is reported as 66 °C. For CC(=O)SCC(CSC(C)=O)C(=O)N(CC(=O)O)C1Cc2ccccc2C1, the melting point was 114 to 115 °C. Work on Cc1cc(OC(C)C)ccc1N1CCCn2c1nc1c(Cl)ccc(C(OC(F)F)C(F)(F)F)c12 (centres undefined) yielded a melting point of 198 to 204 °C. Work on CC(=O)N1CCN(Cc2nnc(-c3cc4cccc(N(C)S(=O)(=O)c5cccs5)c4[nH]3)s2)CC1 yielded a melting point of 194 to 195 °C. Work on NC1=NC(c2cccc(-c3cccnc3F)c2)(c2ccc3c(c2)OCO3)C2=NCCCN12 (centres undefined) yielded a melting point of 106 to 119 °C. COc1ccc(S(=O)(=O)N2C(=O)C(c3ccccc3OC)(N3CCC[C@H]3C(=O)N3CCC3)c3cc(Cl)ccc32)c(OC)c1 (some centres undefined) gave a melting point of 161 to 166 °C. Cc1cc(C2=NOC(c3cc(Cl)cc(Cl)c3)(C(F)(F)F)C2)ccc1C(=O)NC1CCCO1 (centres undefined) showed a melting point of 144 to 147 °C. C=CCON1C(=O)c2ccc(Cl)c3c(N4CC[C@H](NC(=O)OC(C)(C)C)C4)cc(Cl)c(c23)C1=O showed a melting point of 123 to 125 °C. Compound CC(=O)C(=Cc1ccc(C(=O)O)cc1)C(C)=O has a melting point of 195 to 199 °C. Compound COC(=O)[C@H](c1ccccc1Cl)N1CCc2sc(OC(=O)COc3ccccc3)cc2C1 has a melting point of 104 to 106 °C. For COC(=O)c1ccc(Cn2c(=O)c3cc(C#CCc4ccc(OC)cc4)ccc3n3cnnc23)cc1, the melting point was 249 °C. Compound CCCCc1cc2c3c(c[nH]c3c1)CC1C2CC(NC(=O)c2ccccc2)CN1C (centres undefined) has a melting point of 143 to 145 °C. In the case of COc1ccc(-c2cc(C=O)[nH]c2-c2ccc(OC)cc2)cc1, the melting point is reported as 165 to 166 °C. For N#CC(=NNc1ccc(C(=O)O)cc1)C(N)=C(C#N)C#N, the melting point was > 300 °C. In the case of NC(=O)c1[nH]cnc1OC(=O)c1ccccc1C(=O)OCc1ccccc1, the melting point is reported as 122 to 124 °C. Compound CCC1(CC)OC(c2ccc(S(C)(=O)=O)cc2)=CC1=O has a melting point of 109 to 110 °C. CC12CCC(=O)C=C1CCC1C2CCC2(C)C(n3ccnc3)=CCC12 (centres undefined) showed a melting point of 147 to 150 °C. COc1ccc2c(c1)C(=O)c1ccc(C(=O)O)cc1CC2 gave a melting point of 201 to 203 °C. Cc1oc(-c2ccccc2)nc1CCC(=O)c1ccc(CCC2OC(=O)NC2=O)cc1 (centres undefined) gave a melting point of 173 to 174 °C. In the case of COc1cccc(Nc2nc(-c3ccccc3)c(C(=O)c3sc(Nc4cccc(OC)c4)nc3-c3ccccc3)s2)c1, the melting point is reported as > 285 °C. In the case of CC(C)(O)Cn1c(CON)nc2c(N)nc3ccccc3c21, the melting point is reported as 178 to 179 °C. In the case of Cc1cc(NC(=O)Cc2ccccc2)cc(C)c1S(=O)(=O)C[N+](=O)[O-], the melting point is reported as 158 to 159 °C. Work on CC(=O)c1cc(C#N)c(=O)[nH]c1C=CN(C)C yielded a melting point of 267 to 270 °C. Work on COc1cccnc1CO yielded a melting point of 72.5 to 73.5 °C. With O=C(Nc1ccc(C(=O)N2Cc3cccn3Cc3ccccc32)cc1)c1cc(Cl)cc(Cl)c1Cl the melting point was 231 to 234 °C. For CN1C(=O)c2ccccc2N(N=O)c2ccccc21, the melting point was 95 to 98 °C. With CCCOC(=O)C1=C(C)NC(CO)=C(C(=O)OC)C1c1ccccc1C#N (centres undefined) the melting point was 149 to 152 °C. CON=C1CN(c2c(F)cc3c(=O)c(C(=O)O)cn(C4CC4)c3c2F)CC12CNC2 showed a melting point of 205 to 207 °C. CCCCCCCCCCCC(CC(=O)O)OC(C)=O (racemic) showed a melting point of 37 °C. With Oc1cc(-c2ccc(F)cc2)nc(-c2ccccn2)n1 the melting point was 197 to 198 °C. Work on NNC(=O)OCCOc1ccc(C(=O)c2ccccc2)c(O)c1 yielded a melting point of 58 to 61 °C. NC(=O)N(O)CCNC(=O)c1ccc2ccccc2n1 gave a melting point of 189 to 190 °C. CC1(COc2ccc(S(=O)(=O)C3SC(=O)NC3=O)cc2)CCCCC1 (centres undefined) showed a melting point of 174 to 175 °C. With O=Cc1cc([N+](=O)[O-])c(CCl)cc1O the melting point was 135 °C. COc1ccc(S(=O)(=O)F)cc1NC(C)=O gave a melting point of 162 to 164 °C. Compound COc1cc(CCCCCCCC2OC(=O)NC2=O)ccc1OCc1nc(-c2ccccc2)oc1C (centres undefined) has a melting point of 109 to 111 °C. For C#CCOc1ccc(-c2nc3ccccc3o2)cc1, the melting point was 124 to 127 °C. COc1ccc(OC)c2c1C(=O)c1ccc(-c3nnn[nH]3)cc1C2=O showed a melting point of 260 to 262 °C. With Brc1ccc2cc(OCc3ccc4ccccc4n3)ccc2c1 the melting point was 135 to 137 °C. Compound Cc1cccc(OC2=NS(=O)(=O)N=C(N)N2C(C)C)c1 has a melting point of 56 to 58 °C. In the case of CCN(c1cc2c3c(c1)CCCC3CCC2)c1ncc(C(=O)O)cn1, the melting point is reported as 252 to 253 °C. COc1cc(C(C)C)c2c(c1)S(=O)(=O)N(COC(=O)c1c(C)ccnc1C)C2=O gave a melting point of 132 to 134 °C. For Cc1oc(C=Cc2cccc(C(F)(F)F)c2)nc1CO, the melting point was 134 to 135 °C. In the case of CCOC(=O)CC1CN=C(c2cc3cccc(N(C)S(=O)(=O)c4cccnc4)c3[nH]2)S1 (centres undefined), the melting point is reported as 146 to 147 °C. In the case of CC(=O)N(C(C)=O)c1cc2c(Nc3ccc(Sc4nccn4C)c(Cl)c3)c(C#N)cnc2cc1N1CCC(N2CCCC2)CC1, the melting point is reported as 245 to 247 °C. CC1(c2nn(-c3ccc(N)cc3Cl)c(=O)o2)CC1 gave a melting point of 195 to 196 °C. O=C(O)c1cccc(Oc2ccccc2Cl)c1[N+](=O)[O-] showed a melting point of 185 to 187 °C. COc1ccc(C)cc1NC(=O)Nc1ccc(C2=CCN(C(=O)Nc3ccc(OCCO)cc3C(F)(F)F)CC2)cc1 showed a melting point of 150 to 153 °C. Compound COc1ccc2cc(-c3ccc(OCCN4CCCC4)cc3)sc2c1 has a melting point of 151 to 154 °C. CSc1nnc2c(=O)c3ccc(C)cc3ccn12 showed a melting point of 178 to 179 °C. In the case of CCOC(=O)N1CCN(C2=Nc3ccccc3Cc3ccccc32)CC1, the melting point is reported as 137 to 138 °C.

From a melting point compilation (Tetko et al.; mined from patent text by program, amines drawn as free bases though some values may be those of a salt)
